Source: patent US4192799A, “Conjugates formed by reacting a prostaglandin mimic compound with a carrier molecule” (The Upjohn Company, priority 1977, dated 1980)
Where two headings read alike, the source gives them in different places.

Experiments:
[1] = test system: antiserum raised against 9-deoxy-9-methylene PGF2 (BSA Conjugate); assay: RIA cross-reactivity of antiserum raised against 9-deoxy-9-methylene PGF2, BSA conjugate; assay type: binding, Albino New Zealand rabbits; details: relative to PGE2; ng required to displace 50% of [3H]PGE2
Protocol: (§1) Five milligrams of KLH-PGE2 mimic conjugate is added to 2.25 ml. of sterile saline (0.9%) and 2.25 ml. of Freund's complete adjuvant and blended. 1.0 ml. of this mixture is injected subcutaneously at 20-30 sites on the flanks of four Albino New Zealand rabbits of 2-4 kg. mass. Each rabbit receives a dose of about 1 mg. On the same day, 1.0 ml. of attenuated pertussis vaccine is injected intramuscularly at four sites on the hindquarters of each rabbit.
Antibodies against other PG mimics can be elicited by substituting equal amounts of other conjugates, such as those of preparations 1 through 9, for the KLH-PGE2 mimic conjugate in procedure 1. For example, the following conjugates can be substituted:
(§2) A known amount of PGE-type compound in 0.1 ml. PBSG buffer at pH 7.4±0.2 and 0.1 ml. of the radiolabeled form of the same PGE-type compound (10,000 cpm/0.1 ml. PBSG) are introduced into a 12×75 mm. polypropylene tube. Antiserum (0.1 ml.) against the corresponding mimic is added at a dilution which will bind 50%±3% of the radiolabeled authentic PGE-type compound in the absence of competition from the unlabeled PGE-type compound. The tube is incubated for 1 hour at 25° and then 12-16 hours at 4°. Antibody bound and free fractions are separated with dextrancoated charcoal. Other separation techniques are acceptable.
(§3) The data below show the cross-reactivity of antiserum raised against 9-deoxy-9-methylene PGF2 to various PGE-type compounds, relative to PGE2. Percent cross-reaction is defined as (ng. of PGE2 required to displace 50% of [^3 H] PGE2)/(ng. heterologous PG required to displace 50% of [^3 H] PGE2)×100.

[2] = test system: antiserum raised against 9-deoxy-9-methylene PGF2 (KLH Conjugate); assay: RIA cross-reactivity of antiserum raised against 9-deoxy-9-methylene PGF2, KLH conjugate; assay type: binding, Albino New Zealand rabbits; details: relative to PGE2; ng required to displace 50% of [3H]PGE2
Protocol: as §1, §2, §3

[3] = test system: antibodies against PGE1 -BSA conjugate (Example 7); details: Table 1 Example 7, conjugate PGE1 -BSA, PGE1 = 100; cited from earlier work
[4] = test system: antibodies against PGE2 -BSA conjugate (Example 3); details: Table II Example 3, conjugate PGE2 -BSA, PGE2 = 100; cited from earlier work
[5] = test system: antibodies against PGE1 -poly-1-lysine conjugate; details: Table 1 Example 2, conjugate PGE1 -poly-1-lysine, PGE1 = 100; cited from earlier work
[6] = test system: antibodies against PGE1 -BSA conjugate (Example 6); details: Table 1 Example 6, conjugate PGE1 -BSA, PGE1 = 100; cited from earlier work
[7] = test system: antibodies against PGE1 -BSA conjugate (Example 4); details: Table 1 Example 4, conjugate PGE1 -BSA, PGE1 = 100; cited from earlier work
[8] = test system: antibodies against PGE1 -BSA conjugate (Example 5); details: Table 1 Example 5, conjugate PGE1 -BSA, PGE1 = 100; cited from earlier work
[9] = test system: antibodies against PGE2 -BSA conjugate (Example 1); details: Table II Example 1, conjugate PGE2 -BSA, PGE2 = 100; cited from earlier work
[10] = test system: antibodies against PGE2 -hen gamma globulin conjugate; details: Table II Example 4, conjugate PGE2 -hen gamma globulin, PGE2 = 100; cited from earlier work
[11] = test system: antibodies against PGE2 -BSA conjugate (Example 5); details: Table II Example 5, conjugate PGE2 -BSA, PGE2 = 100, cited from earlier work
[12] = test system: antibodies against PGE1 -porcine gamma globulin conjugate; details: Table 1 Example 3, conjugate PGE1 -porcine gamma globulin, PGE1 = 100; cited from earlier work
[13] = test system: antibodies against PGE2 -KLH conjugate; details: Table II Example 2, conjugate PGE2 -KLH, PGE2 = 100; cited from earlier work
[14] = test system: antibodies against PGE1 -thyroglobulin conjugate; details: Table 1 Example 1, conjugate PGE1 -thyroglobulin, PGE1 = 100; cited from earlier work
[15] = aqueous solution at room temperature; cited from earlier work

CCCCC[C@H](O)/C=C/[C@@H]1[C@@H](CC(=O)CCCCC(=O)O)[C@@H](O)C[C@H]1O [6-keto-PGF1 α]
% Cross-Reaction BSA Conjugate [1]: 0.50%
% Cross-Reaction KLH Conjugate [2]: 0.10%

C=C1C[C@@H](O)[C@H](/C=C/[C@@H](O)CCCCC)[C@H]1C/C=C\CCCC(=O)O [9-deoxy-9-methylene PGF2, 9-deoxy-9-methylene-PGF2]
% Cross-Reaction BSA Conjugate [1]: 100%
% Cross-Reaction KLH Conjugate [2]: 100%

CCCCCC(=O)CC[C@H]1[C@H](O)CC(=O)[C@@H]1C/C=C\CCCC(=O)O [13,14-dihydro-15-keto-PGE2, 13,14-dihydro-15-keto-PGE]
% Cross-Reaction BSA Conjugate [1]: 0.2%
% Cross-Reaction KLH Conjugate [2]: 0.03%

CCCCCC(=O)CC[C@@H]1[C@@H](C/C=C\CCCC(=O)O)[C@@H](O)C[C@H]1O [13,14-dihydro-15-keto-PGF2 α]
% Cross-Reaction BSA Conjugate [1]: 0.01%
% Cross-Reaction KLH Conjugate [2]: 0.10%

CCCCC[C@H](O)CC[C@H]1[C@H](O)CC(=O)[C@@H]1C/C=C\CCCC(=O)O [13,14-dihydro-PGE2]
% Cross-Reaction BSA Conjugate [1]: 3.6%
% Cross-Reaction KLH Conjugate [2]: 1.6%

CCCCC[C@H](O)CC[C@@H]1[C@@H](C/C=C\CCCC(=O)O)[C@@H](O)C[C@H]1O [13,14-dihydro-PGF2 α]
% Cross-Reaction BSA Conjugate [1]: 0.2%
% Cross-Reaction KLH Conjugate [2]: 0.34%

CCCCCC(=O)/C=C/[C@H]1[C@H](O)CC(=O)[C@@H]1C/C=C\CCCC(=O)O [15-keto-PGE2]
% Cross-Reaction BSA Conjugate [1]: 2.5%
% Cross-Reaction KLH Conjugate [2]: 0.03%

CCCCCC(=O)/C=C/[C@@H]1[C@@H](C/C=C\CCCC(=O)O)[C@@H](O)C[C@H]1O [15-keto-PGF2 α]
% Cross-Reaction BSA Conjugate [1]: 0.2%
% Cross-Reaction KLH Conjugate [2]: 0.01%

CCCCC[C@H](O)/C=C/[C@H]1C=CC(=O)[C@@H]1CCCCCCC(=O)O [PGA1]
% Cross-Reaction BSA Conjugate [1]: 4.9%
% Cross Reaction [3]: 6%
% Cross Reaction [4]: 200%
% Cross Reaction [5]: 220%
% Cross Reaction [6]: 10,000%
% Cross Reaction [7]: 100%
% Cross-Reaction KLH Conjugate [2]: 0.08%
% Cross Reaction [8]: 25%
% Cross Reaction [9]: 7%

CCCCC[C@H](O)/C=C/[C@H]1C=CC(=O)[C@@H]1C/C=C\CCCC(=O)O [PGA2]
% Cross-Reaction BSA Conjugate [1]: 2.8%
% Cross Reaction [10]: 3%
% Cross Reaction [4]: 400%
% Cross Reaction [5]: 440%
% Cross Reaction [11]: 550%
% Cross Reaction ([11]; listed as A2): recognized preferentially
% Cross Reaction [6]: 1000%
% Cross Reaction [7]: 100%
% Cross-Reaction KLH Conjugate [2]: 0.75%
% Cross Reaction [8]: 10%
% Cross Reaction [9]: 7%

CCCCC[C@H](O)/C=C/C1=C(CCCCCCC(=O)O)C(=O)CC1 [PGB1]
% Cross-Reaction BSA Conjugate [1]: 0.1%
% Cross Reaction [3]: 66%
% Cross Reaction [5]: 31,000%
% Cross Reaction [6]: 100,000%
% Cross-Reaction KLH Conjugate [2]: 0.005%
% Cross Reaction [12]: 10%

CCCCC[C@H](O)/C=C/C1=C(C/C=C\CCCC(=O)O)C(=O)CC1 [PGB2]
% Cross-Reaction BSA Conjugate [1]: 0.0%
% Cross Reaction [5]: 8,500%
% Cross Reaction [11]: 580%
% Cross Reaction ([11]; listed as B2): recognized preferentially
% Cross Reaction [6]: 50,000%
% Cross Reaction [7]: 100%
% Cross-Reaction KLH Conjugate [2]: 0.009%
% Cross Reaction [9]: 7%

CCCCC[C@H](O)/C=C/[C@H]1C(=O)C[C@H](O)[C@@H]1CCCCCCC(=O)O [PGD1]
% Cross-Reaction BSA Conjugate [1]: 4.9%
% Cross-Reaction KLH Conjugate [2]: 0.02%

CCCCC[C@H](O)/C=C/[C@H]1C(=O)C[C@H](O)[C@@H]1C/C=C\CCCC(=O)O [PGD2]
% Cross-Reaction BSA Conjugate [1]: 10.0%
% Cross-Reaction KLH Conjugate [2]: 0.02%

CCCCC[C@H](O)/C=C/[C@H]1[C@H](O)CC(=O)[C@@H]1CCCCCCC(=O)O [PGE1]
% Cross-Reaction BSA Conjugate [1]: 100%
% Cross Reaction [3]: 100%
% Cross Reaction [10]: 15%
% Cross Reaction [4]: 73%
% Cross Reaction [13]: 110%
% Cross Reaction [5]: 100%
% Cross Reaction [11]: 55%
% Cross Reaction [6]: 100%
% Cross Reaction [7]: 100%
% Cross-Reaction KLH Conjugate [2]: 90%
% Cross Reaction [8]: 100%
% Cross Reaction [12]: 100%
% Cross Reaction [9]: 10%
% Cross Reaction [14]: 100%

CCCCC[C@H](O)/C=C/[C@H]1[C@H](O)CC(=O)[C@@H]1C/C=C\CCCC(=O)O [PGE2, prostaglandin E2]
% Cross Reaction [10]: 100%
% Cross Reaction [4]: 100%
% Cross Reaction [13]: 100%
% Cross Reaction [5]: 10%
% Cross Reaction [11]: 100%
% Cross Reaction [6]: 90%
% Cross Reaction [7]: 100%
% Cross Reaction [9]: 100%
% Cross Reaction [14]: 20%

CCCCC[C@H](O)/C=C/[C@@H]1[C@@H](CCCCCCC(=O)O)[C@H](O)C[C@H]1O [PGF1 β]
% Cross-Reaction BSA Conjugate [1]: 5.0%
% Cross-Reaction KLH Conjugate [2]: 0.30%

CCCCC[C@H](O)/C=C/[C@@H]1[C@@H](C/C=C\CCCC(=O)O)[C@@H](O)C[C@H]1O [PGF2 α]
% Cross-Reaction BSA Conjugate [1]: 1.5%
% Cross-Reaction KLH Conjugate [2]: 0.20%

CCCCC[C@H](O)/C=C/[C@@H]1[C@@H](C/C=C\CCCC(=O)O)[C@H](O)C[C@H]1O [PGF2 β]
% Cross-Reaction BSA Conjugate [1]: 4.4%
% Cross-Reaction KLH Conjugate [2]: 3.0%

CCCCC[C@H](O)/C=C/[C@@H]1[C@@H](C/C=C\CCCC(=O)O)[C@@H]2C[C@H]1OO2 [PGH2]
half-life [15]: approximately five

PGB3
% Cross Reaction [4]: 62%
% Cross Reaction [9]: 7%

PGE1 α
% Cross-Reaction BSA Conjugate [1]: 2.9%
% Cross-Reaction KLH Conjugate [2]: 0.09%
